# Test results: patent US20110269778A1, “NOVEL DIPHENYL PURINE DERIVATIVES USEFUL AS MODULATORS OF NICOTINIC ACETYLCHOLINE RECEPTORS” (NEUROSEARCH A/S, priority 2008, published 2011)
# Key:
# [1] = target: T1, wild-type nAChR α7 receptors (Homo sapiens, UniProt P36544); assay: Positive modulation of wild-type nAChR α7 receptors expressed in Xenopus laevis oocytes, two-electrode voltage clamp; format: cell-based; conditions: for Emax: maximal modulation of the control response to 100 μM acetylcholine, (test-control)/control×100%, from fitted concentration response curve, read-out: EC50 Imax; for EC50: positive modulation of current induced by 100 μM acetylcholine, oocytes clamped at −60 mV, test compound 0.01-31.6 μM applied 30 s before and during acetylcholine
# T1 construct: expressed in transfected cells; host or cells: Xenopus laevis oocytes
# T1 sequence (P36544 23-502): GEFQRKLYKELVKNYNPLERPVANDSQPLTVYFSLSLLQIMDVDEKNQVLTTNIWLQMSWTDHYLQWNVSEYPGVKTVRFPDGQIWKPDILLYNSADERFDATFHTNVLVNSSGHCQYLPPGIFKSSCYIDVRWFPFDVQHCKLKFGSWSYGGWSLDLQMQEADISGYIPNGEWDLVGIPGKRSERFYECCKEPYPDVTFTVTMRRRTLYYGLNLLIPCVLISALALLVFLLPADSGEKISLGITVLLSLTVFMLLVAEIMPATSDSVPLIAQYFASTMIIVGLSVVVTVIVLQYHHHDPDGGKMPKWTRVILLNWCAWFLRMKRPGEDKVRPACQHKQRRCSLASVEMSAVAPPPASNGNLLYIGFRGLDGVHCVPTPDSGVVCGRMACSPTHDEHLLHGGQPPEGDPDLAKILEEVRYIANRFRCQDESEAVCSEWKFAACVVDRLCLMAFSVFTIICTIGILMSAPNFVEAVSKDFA
# Description: In this example the positive modulation of wild-type nAChR α7 receptors by the compounds of the invention was determined using nAChR α7 receptors heterologously expressed in Xenopus laevis oocytes.
# The electrical current through the nAChR α7 channel was measured using conventional two-electrode voltage clamp and nAChR α7 currents were activated by applying pulses of agonist-containing solution onto the nAChR α7 expressing oocyte.
# In brief, the oocytes were placed in a recording chambers and continuously super-fused with an Oocyte Ringer (OR) solution containing 90 mM NaCl, 2.5 mM KCl, 2.5 mM CaCl2, 1 mM MgCl2 and 5 mM HEPES (pH adjusted to 7.4). The oocytes were clamped at −60 mV and currents were induced by applying 20 s pulses of 100 μM acetylcholine dissolved in OR. The intervals between the acetylcholine applications were 5 minutes, during which the oocytes were washed with OR. The first three applications were control applications to insure a constant response level of 100 μM acetylcholine. For the subsequent test applications, increasing concentrations (0.01-31.6 μM) of the test compound were applied 30 s before and during the acetylcholine (100 μM) application, which caused a robust increase in the acetylcholine-induced current amplitude.
# The positive modulation in the presence of Compound 4 was calculated as (test-control)/control×100% and the concentration response curve for this positive modulation was fitted to the sigmoidal logistic equation: I=Imax/(1+(EC50/[compound])^n), where Imax represents the maximal modulation of the control response, EC50 is the concentration causing a half maximal response, and n is the slope coefficient.
Structure (SMILES),melting point,Emax [1],EC50 [1]
"COc1ccc(-n2cnc3c(-c4ccc(C(F)(F)F)cc4F)ncnc32)cc1 [Compound 1, 6-(2-Fluoro-4-trifluoromethyl-phenyl)-9-(4-methoxy-phenyl)-9H-purine]",181.4 to 182.8 °C,45%,1.2 µM
"Oc1ccc(-n2cnc3c(-c4ccc(C(F)(F)F)cc4F)ncnc32)cc1 [Compound 2, 4-[6-(2-Fluoro-4-trifluoromethyl-phenyl)-purin-9-yl]-phenol]",205.2 to 206.4 °C,120%,5.8 µM
"NS(=O)(=O)c1ccc(-n2cnc3c(-c4ccc(C(F)(F)F)cc4F)ncnc32)cc1 [Compound 3, 4-[6-(2-Fluoro-4-trifluoromethyl-phenyl)-purin-9-yl]-benzenesulfonamide]",243.8 to 245 °C,44%,9.5 µM
"COc1ccc(-n2c(=O)[nH]c3c(-c4ccc(C(F)(F)F)cc4F)ncnc32)cc1 [Compound 4, 6-(2-Fluoro-4-trifluoromethyl-phenyl)-9-(4-methoxy-phenyl)-7,9-dihydro-purin-8-one]",295.9 to 297.2 °C,1.6%,3.2 µM
"O=c1[nH]c2c(-c3ccc(C(F)(F)F)cc3F)ncnc2n1-c1ccc(O)cc1 [Compound 5, 6-(2-Fluoro-4-trifluoromethyl-phenyl)-9-(4-hydroxy-phenyl)-7,9-dihydro-purin-8-one]",276.4 to 277.9 °C,82%,33 µM
"COc1ccc(-n2nnc3c(-c4ccc(C(F)(F)F)cc4F)ncnc32)cc1 [Compound 6, 7-(2-Fluoro-4-trifluoromethyl-phenyl)-3-(4-methoxy-phenyl)-3H-[1,2,3]-triazolo[4,5-d]pyrimidine]",175.4 to 176.8 °C,7.3%,–
"Oc1ccc(-n2nnc3c(-c4ccc(C(F)(F)F)cc4F)ncnc32)cc1 [Compound 7, 4-[7-(2-Fluoro-4-trifluoromethyl-phenyl)-[1,2,3]triazolo[4,5-d]pyrimidin-3-yl]-phenol]",210.2 to 211.8 °C,28%,5.9 µM
